Laboratory results published in paper PMC7797062, “Structural basis for guide RNA trimming by RNase D ribonuclease in Trypanosoma brucei” (Nucleic Acids Research, 2020).

What was measured:
[1] = biological target: T1, TbRND (RND-WT) (Trypanosoma brucei, UniProt Q38DE2); assay: X-ray crystal structure (soak of apo crystals); format: binding; details: 10 mM NMP and 10 mM MnCl2 soak, 10 min
T1 construct: gene Tb09.211.3670; residues 41-390 (N-terminal 40 residues with mitochondrial localization signal removed); codon-optimized gene; E. coli BL21(DE3); His-Sumo tag cut with Ulp1; monomer per asymmetric unit
T1 sequence (Q38DE2 41-390): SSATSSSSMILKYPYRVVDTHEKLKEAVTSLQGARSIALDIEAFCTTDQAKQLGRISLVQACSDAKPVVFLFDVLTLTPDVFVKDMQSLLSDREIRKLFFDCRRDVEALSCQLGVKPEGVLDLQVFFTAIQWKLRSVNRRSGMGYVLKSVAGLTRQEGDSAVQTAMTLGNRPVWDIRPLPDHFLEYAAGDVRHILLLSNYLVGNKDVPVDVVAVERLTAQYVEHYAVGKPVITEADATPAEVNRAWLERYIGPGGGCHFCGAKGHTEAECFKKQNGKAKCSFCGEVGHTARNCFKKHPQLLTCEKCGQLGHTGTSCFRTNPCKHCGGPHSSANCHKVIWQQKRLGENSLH

[2] = biological target: TbRND ΔZF_3-4 (Trypanosoma brucei, UniProt Q38DE2 41-341); assay: X-ray crystallography (1.77 A); Ca2+ (10 mM CaCl2), Zn2+; EMSA: 20 mM Tris-HCl pH 8.0, 200 mM NaCl, 2 mM DTT, 0.2 uM FAM-RNA, 1 h on ice; 6% native PAGE in 0.5x TBE at 4 C; details: protein: recombinant; tags: His-SUMO removed by Ulp1; single strand
[3] = biological target: T2, RND-Exo (Trypanosoma brucei, UniProt Q38DE2 41-296); assay: EMSA; no obvious shift up to 20 uM protein, 0.2 uM RNA; EMSA: 20 mM Tris-HCl pH 8.0, 200 mM NaCl, 2 mM DTT, 0.2 uM FAM-RNA, 1 h on ice; 6% native PAGE in 0.5x TBE at 4 C; details: protein: recombinant; tags: His-SUMO removed by Ulp1; label: 5'-FAM; single strand
T2 sequence: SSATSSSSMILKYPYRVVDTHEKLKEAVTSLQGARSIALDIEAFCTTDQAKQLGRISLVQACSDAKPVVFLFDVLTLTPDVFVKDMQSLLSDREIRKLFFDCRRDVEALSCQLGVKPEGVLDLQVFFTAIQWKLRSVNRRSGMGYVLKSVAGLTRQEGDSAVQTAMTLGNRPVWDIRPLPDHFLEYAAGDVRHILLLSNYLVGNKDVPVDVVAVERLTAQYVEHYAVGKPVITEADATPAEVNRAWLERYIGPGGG

Molecule: Nc1ncnc2c1ncn2[C@@H]1O[C@H](COP(=O)(O)O)[C@@H](O)[C@H]1O [AMP]
- X-ray crystal structure (soak of apo crystals) ([1]; site: R0 of Exo domain (none in ZF1 groove), b55 says ATP soaked crystals): one AMP was captured at the R0 site in the A-form structure

Molecule: Nc1ccn([C@@H]2O[C@H](COP(=O)(O)O)[C@@H](O)[C@H]2O)c(=O)n1 [CMP]
- X-ray crystal structure (soak of apo crystals) ([1]; site: ZF1 groove, also R2 site of Exo domain): one CMP nucleotide was bound in ZF1 groove

Molecule: Nc1nc2c(ncn2[C@@H]2O[C@H](COP(=O)(O)O)[C@@H](O)[C@H]2O)c(=O)[nH]1 [GMP]
- X-ray crystal structure (soak of apo crystals) ([1]; sites: R0 and R2 of Exo domain, ZF1 groove, ZF2 groove (Mn2+-dependent), 2.25 A): we observed two GMP molecules in the G-form structure

Molecule: O=c1ccn([C@@H]2O[C@H](COP(=O)(O)O)[C@@H](O)[C@H]2O)c(=O)[nH]1 [UMP]
- X-ray crystal structure (soak of apo crystals) ([1]; site: ZF1 groove): one well-defined UMP molecule was captured in the groove of ZF1

Molecule: UUUUUUUUUUUU (ssRNA) [RNA-12U]
- binding result [2]: binds

Molecule: AACUUGUUUUUUUU (ssRNA) [RNA1]
- binding result [3]: no binding
